The record followed here is patent US20080200479A1, “Ocaperidone Salts and Pharmaceutical Compositions Containing the Same” (priority 2005, published 2008).

In brackets after ≈: the same amount, converted by molar mass. Where a name gives a salt, the structure may show the parent alone.

Data set [1] can be described thus: Solubility of ocaperidone salts and free base in water. The following applies: for solubility in water (in words): crystalline salt, HPLC grade water pH=6, 25° C., 1 h and 24 h, compared with salts of examples 1, 3-10 and free base. Here is the method:
In particular, the solubilities of ocaperidone salts were measured as follows:
UV/visible spectrophotometer: Agilent 8453E
Volumetric flask (5 ml, 10 ml, 20 ml, 100 ml) Mechanical pipettes: Biohit (m1000, m200)
Magnetic stirrer: Heidolph MR3001K
A suspension of 100 mg of crystalline ocaperidone salt or ocaperidone free base in 1 ml HPLC grade pure water (pH=6) was prepared. The suspension was kept at fixed and controlled temperature (ex: 25° C.) under magnetic stirring for 24 hours. A sample was taken, filtered and the solubility of the ocaperidone salts or ocaperidone free base was measured after 1 h and 24 h. Results are given in g/100 ml.

Data set [2] in a line: Solubility of ocaperidone free base in acid solution. The following applies: acid solution at pH=1.3. Type of data set: physicochemical.

As for `Cc1nc2c(C)cccn2c(=O)c1CCN1CCC(c2noc3cc(F)ccc23)CC1` [Example 2, Ocaperidone Pyroglutamic Acid Salt], the “solubility in water (in words)” value was “higher solubility in water than the other salts” in data set [1] and “unexpectedly high solubility” in data set [1] (listed as ocaperidone pyroglutamic salt). Also, in data set [1] (ocaperidone salt solubility study in water, ratio to succinic acid addition salt), the “times more soluble than the succinic acid addition salt” value stood at 31.2 times.

A word on the thermodynamic solubility: it is solubility found after equilibrating the solid with the medium. Take `Cc1nc2c(C)cccn2c(=O)c1CCN1CCC(c2noc3cc(F)ccc23)CC1` [ocaperidone, 3-[2-[4-(6-fluoro-1,2-benzisoxazol-3-yl)-1-piperidinyl]ethyl]-2,9-dimethyl-pyrido-[1,2-a]pyrimidin-4-one]: the solubility (thermodynamic) in data set [1] (25 °C, pH 6, water, thermodynamic from solid) amounted to 7 µg/mL (≈ 16.6 µM). The “solubility in acid solution” value in data set [2] is on record as 0.25 g/100 ml.
